Measured values published in patent US20090130098A1, “Specific therapy using integrin ligands for treating cancer” (Merck Patent GmbH, priority 2006, published 2009).

Assays:
[1] = tested on: newly diagnosed glioblastoma (GBM); assay: Phase I/IIa trial of cilengitide with temozolomide and radiotherapy in newly diagnosed glioblastoma; format: in vivo, human; conditions: cilengitide 500 mg + TMZ/RT
Description: Purpose: To evaluate safety, toxicity, and efficacy of the combination of the cyclic RGD pentapeptide Cilengitide (=cyclo-(Arg-Gly-Asp-DPhe-NMe-Val)), an inhibitor of integrins αvβ3 and αvβ5, in addition to standard temozolomide (TMZ) and radiotherapy (RT).
Patients and methods: Fifty-two pts (PS 0-1: 92%, 2: 8%; median age 57 yrs) after biopsy (n= 9/17%) or tumor resection (n= 43/83%) were treated with standard TMZ/RT (Stupp et al. NEJM 2005). In addition Cilengitide (500 mg i.v., 2×/week) was started one week before TMZ/RT and given throughout for the duration of chemotherapy or until progression. Primary endpoint was progression free survival rate at 6 months (target: 65%). Patients were followed with MRI every 2 months. Histopathologic diagnosis and MRI imaging were independently reviewed, MGMT promotor methylation status was assessed in 45 (86.5%) pts.

various brain tumors = conditions: human, in vivo; cited from earlier work
[2] = tested on: recurrent glioblastoma (GBM); assay: Phase IIa trial of cilengitide single agent therapy in recurrent glioblastoma; format: in vivo, human
Description: Background: The present phase IIa study was designed to evaluate the safety, toxicity, and clinical activity of the cyclic RGD pentapeptide cilengitide ((=cyclo-(Arg-Gly-Asp-DPhe-NMe-Val)), an inhibitor of integrins αvβ3 and αvβ5, as a single agent at doses of 500 and 2000 mg in patients (pts) with recurrent glioblastoma (GBM).
Methods: In this multicenter, open-label, randomized, uncontrolled study, pts with GBM and measurable disease that had relapsed after previous therapy with temozolomide and radiotherapy were randomized to receive cilengitide at doses of either 500 mg or 2000 mg i.v., 2×/week, until progression. Histopathology diagnosis and MRI imaging were subject to independent blinded review. The primary endpoint was Progression Free Survival (PFS) at 6 months (mths). Secondary endpoints included response, survival, time to disease progression, safety, tolerability and pharmacokinetics.

SMILES: CC(C)[C@H]1C(=O)N[C@@H](CCCN=C(N)N)C(=O)NCC(=O)N[C@@H](CC(=O)O)C(=O)N[C@H](Cc2ccccc2)C(=O)N1C [cilengitide, cyclo-(Arg-Gly-Asp-DPhe-NMeVal)]
- non-hematologic grade 3: constitutional symptoms (asthenia, fatigue, anorexia) [1]: 3 n
- non-hematologic grade 3: deep venous thrombosis and pulmonary embolism [1]: 1 n
- non-hematologic grade 3: elevated liver function tests [1]: 1 n
- sigmoid perforation (grade 2) ([1]; patient with history of sigmoid diverticulosis): One patient
- MTD (various brain tumors): no known MTD
- pts who received 12 or more cycles of therapy ([2]; 500 mg): 4 pts
- pts who received 12 or more cycles of therapy ([2]; 2000 mg): 6 pts
- tumor control, 2000 mg vs 500 mg ([2]; 2000 mg 2x/week, not statistically significant): trend towards better tumor control
- Treatment related NCI CTC grade 3 AE: arthralgia/myalgia ([2]; at 500 mg): 1 patient
- Treatment related NCI CTC grade 3 AE: elevated liver enzymes ([2]; at 500 mg): 1 patient
- Treatment related NCI CTC grade 3 AE: weight increase/edema ([2]; at 2000 mg): 1 patient
- single agent activity in recurrent glioblastoma ([2]; in vivo): advantageous single agent activity
